Results taken from patent publication US11918592B2, “Inhibitors of cyclin dependent kinase 7 (CDK7)” (Syros Pharmaceuticals, Inc., priority 2018, dated 2024).
Read-outs that look alike come from different tables or passages of the source.

Tests used:
[1] = tested on: HCC70 cells; experiment: Inhibition of cell proliferation, CyQUANT Direct, HCC70; format: cell-based, human; details: Homo sapiens, read-out: HCC 70 proliferation calculated IC50
[2] = tested on: COV504 cells; experiment: Inhibition of cell proliferation, CyQUANT Direct, COV504; format: cell-based; details: Homo sapiens; COV504 ovarian cancer cells, 72-hour; read-out: COV 504 proliferation calculated IC50
[3] = molecular target: CDK2/Cyclin E1 complex (Homo sapiens, UniProt P24941); experiment: CDK2 kinase inhibition assay (Caliper/LabChip EZ Reader)
Method: (§1) Compounds of the invention were assayed for inhibition of CDK7, CDK9, CDK12, and CDK2 activity at Biortus Biosciences (Jiangyin, Jiangsu Province, P.R. of China) using kinase assays for each CDK developed with a Caliper/LabChip EZ Reader (Perkin Elmer, Waltham, MA).
(§2) Furthermore, the CDK9 inhibition assay used CDK9/Cyclin T1 complex (8 nM) and “5-FAM-CDK9tide” peptide substrate (2 μM, synthesized fluorophore-labeled peptide with the following sequence: 5-FAM-GSRTPMY-NH2 (SEQ ID NO:2) where 5-FAM is defined above and NH2 signifies a C-terminal amide) with 10 mM MgCl2 in the buffer composition listed above. The CDK12 inhibition assay used CDK12 (aa686-1082)/Cyclin K complex (50 nM) and “5-FAM-CDK9tide” (2 μM) as defined above, with 2 mM MgCl2 in the buffer composition above. Additionally, the CDK2 inhibition assay used CDK2/Cyclin E1 complex (0.5 nM) and “5-FAM-CDK7tide” (2 μM) as defined above, with 2 mM MgCl2 in the buffer composition listed above.
(§3) The incubation period at 27° C. for each CDK inhibition assay was chosen such that the fraction of phosphorylated peptide product produced in each assay, relative to the total peptide concentration, was approximately 20% (±5%) for the uninhibited kinase (35 min. for CDK7, 35 min. for CDK2, 3 hr. for CDK12, 15 min. for CDK9).

[4] = molecular target: CDK7/Cyclin H/MAT1 complex (Homo sapiens, UniProt P50613); experiment: CDK7 kinase inhibition assay (Caliper/LabChip EZ Reader)
Sequence of CDK7/Cyclin H/MAT1 complex (P50613 whole entry, the tested form may be a part): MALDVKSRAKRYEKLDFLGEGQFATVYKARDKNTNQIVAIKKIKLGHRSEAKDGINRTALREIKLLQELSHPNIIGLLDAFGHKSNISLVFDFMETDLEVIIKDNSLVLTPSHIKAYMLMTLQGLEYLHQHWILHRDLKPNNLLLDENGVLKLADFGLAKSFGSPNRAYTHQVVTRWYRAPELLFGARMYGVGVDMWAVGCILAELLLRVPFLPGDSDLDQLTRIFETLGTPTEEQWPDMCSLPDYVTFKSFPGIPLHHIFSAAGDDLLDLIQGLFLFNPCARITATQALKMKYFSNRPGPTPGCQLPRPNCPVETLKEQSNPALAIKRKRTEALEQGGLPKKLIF
Sequence of CDK7/Cyclin H/MAT1 complex (P51946 whole entry partner, the tested form may be a part): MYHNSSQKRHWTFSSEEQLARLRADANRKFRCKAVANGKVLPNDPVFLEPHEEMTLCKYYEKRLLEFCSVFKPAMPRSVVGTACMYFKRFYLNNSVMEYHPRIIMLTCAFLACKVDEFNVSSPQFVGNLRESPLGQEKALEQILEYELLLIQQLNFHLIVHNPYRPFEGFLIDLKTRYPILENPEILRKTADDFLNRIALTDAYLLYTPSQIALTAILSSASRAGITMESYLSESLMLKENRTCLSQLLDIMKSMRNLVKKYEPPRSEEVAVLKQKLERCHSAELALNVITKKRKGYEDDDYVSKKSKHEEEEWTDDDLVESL
Sequence of CDK7/Cyclin H/MAT1 complex (P51948 whole entry partner, the tested form may be a part): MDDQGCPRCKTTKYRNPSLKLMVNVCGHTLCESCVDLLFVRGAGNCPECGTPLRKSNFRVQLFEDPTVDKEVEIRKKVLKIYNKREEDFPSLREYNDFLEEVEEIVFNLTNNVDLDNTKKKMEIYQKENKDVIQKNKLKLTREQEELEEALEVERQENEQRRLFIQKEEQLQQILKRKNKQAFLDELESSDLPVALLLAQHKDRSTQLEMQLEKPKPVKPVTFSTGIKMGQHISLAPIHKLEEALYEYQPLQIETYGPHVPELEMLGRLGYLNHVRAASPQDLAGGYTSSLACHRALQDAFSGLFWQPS
Method: as §1, §2, §3

[5] = molecular target: CDK12 (aa686-1082)/Cyclin K complex (Homo sapiens, UniProt Q9NYV4); experiment: CDK12 kinase inhibition assay (Caliper/LabChip EZ Reader)
Sequence of CDK12 (aa686-1082)/Cyclin K complex (Q9NYV4 686-1082): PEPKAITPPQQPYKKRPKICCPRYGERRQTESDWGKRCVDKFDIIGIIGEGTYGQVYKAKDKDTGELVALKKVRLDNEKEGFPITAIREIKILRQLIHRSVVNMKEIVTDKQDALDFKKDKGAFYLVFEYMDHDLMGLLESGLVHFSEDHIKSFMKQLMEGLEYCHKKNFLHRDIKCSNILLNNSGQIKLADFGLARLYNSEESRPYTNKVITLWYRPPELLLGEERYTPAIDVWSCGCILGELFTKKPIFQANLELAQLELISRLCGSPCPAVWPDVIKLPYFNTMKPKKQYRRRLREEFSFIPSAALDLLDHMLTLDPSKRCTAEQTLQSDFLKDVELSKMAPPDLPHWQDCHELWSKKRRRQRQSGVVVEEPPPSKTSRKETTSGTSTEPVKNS
Sequence of CDK12 (aa686-1082)/Cyclin K complex (O75909 whole entry partner, the tested form may be a part): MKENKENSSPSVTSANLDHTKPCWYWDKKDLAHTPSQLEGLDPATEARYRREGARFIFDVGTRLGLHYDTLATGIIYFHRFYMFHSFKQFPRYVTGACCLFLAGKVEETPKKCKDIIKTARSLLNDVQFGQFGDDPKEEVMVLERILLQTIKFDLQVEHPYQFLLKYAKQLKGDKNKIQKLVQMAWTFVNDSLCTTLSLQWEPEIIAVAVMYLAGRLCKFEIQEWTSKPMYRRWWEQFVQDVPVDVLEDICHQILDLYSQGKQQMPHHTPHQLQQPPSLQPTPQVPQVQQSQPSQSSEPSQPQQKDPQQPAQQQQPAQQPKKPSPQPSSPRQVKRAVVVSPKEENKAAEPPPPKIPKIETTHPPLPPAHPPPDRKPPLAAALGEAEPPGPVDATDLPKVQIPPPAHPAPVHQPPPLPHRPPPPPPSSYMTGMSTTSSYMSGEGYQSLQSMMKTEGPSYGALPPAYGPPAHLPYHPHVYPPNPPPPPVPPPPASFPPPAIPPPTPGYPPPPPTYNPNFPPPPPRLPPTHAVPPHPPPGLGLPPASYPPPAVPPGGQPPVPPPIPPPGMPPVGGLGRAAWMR

[6] = tested on: COV318 cells; experiment: Inhibition of cell proliferation, CyQUANT Direct, COV318; format: cell-based; details: Homo sapiens; COV318 ovarian cancer cells, 72-hour; read-out: COV 318 proliferation calculated IC50
[7] = tested on: MB453 cells; experiment: Inhibition of cell proliferation, CyQUANT Direct, MB453; format: cell-based, human; details: Homo sapiens, read-out: MB 453 proliferation calculated IC50
[8] = molecular target: CDK9/Cyclin T1 complex (Homo sapiens, UniProt P50750); experiment: CDK9 kinase inhibition assay (Caliper/LabChip EZ Reader)
Sequence of CDK9/Cyclin T1 complex (P50750 whole entry): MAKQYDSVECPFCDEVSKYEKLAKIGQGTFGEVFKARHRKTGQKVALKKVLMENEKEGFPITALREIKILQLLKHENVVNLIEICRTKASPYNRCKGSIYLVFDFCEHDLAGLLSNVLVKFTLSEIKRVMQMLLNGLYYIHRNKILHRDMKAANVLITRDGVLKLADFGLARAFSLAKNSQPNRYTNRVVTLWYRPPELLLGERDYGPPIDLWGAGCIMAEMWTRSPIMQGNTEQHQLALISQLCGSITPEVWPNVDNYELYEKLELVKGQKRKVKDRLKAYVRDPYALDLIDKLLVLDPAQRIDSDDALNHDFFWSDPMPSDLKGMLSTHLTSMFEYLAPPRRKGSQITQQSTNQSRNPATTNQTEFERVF
Sequence of CDK9/Cyclin T1 complex (O60563 whole entry partner): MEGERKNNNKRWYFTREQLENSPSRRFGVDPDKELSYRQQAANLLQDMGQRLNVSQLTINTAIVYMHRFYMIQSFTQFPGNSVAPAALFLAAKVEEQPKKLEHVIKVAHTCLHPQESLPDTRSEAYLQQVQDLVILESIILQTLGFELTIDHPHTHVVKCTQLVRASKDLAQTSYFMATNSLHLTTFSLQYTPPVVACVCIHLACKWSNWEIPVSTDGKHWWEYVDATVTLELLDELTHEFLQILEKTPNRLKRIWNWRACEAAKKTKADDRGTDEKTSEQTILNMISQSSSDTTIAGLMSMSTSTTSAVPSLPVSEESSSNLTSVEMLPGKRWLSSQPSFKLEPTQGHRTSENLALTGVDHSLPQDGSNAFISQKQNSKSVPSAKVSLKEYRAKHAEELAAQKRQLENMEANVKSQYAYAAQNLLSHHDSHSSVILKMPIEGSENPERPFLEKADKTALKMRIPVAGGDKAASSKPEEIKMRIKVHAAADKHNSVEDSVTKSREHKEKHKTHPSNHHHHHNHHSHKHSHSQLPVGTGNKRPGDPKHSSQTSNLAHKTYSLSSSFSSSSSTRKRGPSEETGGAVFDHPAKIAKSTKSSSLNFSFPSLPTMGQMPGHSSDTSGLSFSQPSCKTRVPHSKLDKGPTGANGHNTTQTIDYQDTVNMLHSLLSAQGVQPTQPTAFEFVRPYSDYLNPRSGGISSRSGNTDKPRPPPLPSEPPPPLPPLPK

[9] = HCC70 triple negative breast cancer cells, 72-hour
[10] = MB453 triple negative breast cancer cells, 72-hour

Compound | IC50 [1, 9] [nM] | IC50 [2] [nM] | IC50 [3] [nM] | IC50 [4] [nM] | IC50 [5] [nM] | IC50 [6] [nM] | IC50 [7, 10] [nM] | IC50 [8] [nM] | IC50 ([1]; HCC70, 72 h) [nM] | IC50 ([7]; 72 h) [nM]
N#Cc1ccc2c(-c3nc(N[C@H]4C[C@H]5CC[C@@H]4N5)ncc3C(F)(F)F)c[nH]c2c1 [Compound 114, 3-[2-[[(1S,2S,4R)-7-azabicyclo[2.2.1]heptan-3-yl]-amino]-5-(trifluoromethyl)pyrimidin-4-yl]-1H-indole-6-carbonitrile] | 100 to 500 | < 100 | > 500 | < 30 | > 500 | 100 to 500 | < 100 | > 500 | – | –
Cc1noc(C)c1-c1ccc2c(-c3nc(N[C@H]4CC[C@@H]4N)ncc3C(F)(F)F)c[nH]c2c1 [Compound 116, (1S,2S)—N2-[4-[6-(3,5-dimethylisoxazol-4-yl)-1H-indol-3-yl]-5-(trifluoromethyl)pyrimidin-2-yl]cyclobutane-1,2-diamine] | 100 to 500 | 100 to 500 | > 500 | < 30 | > 500 | 100 to 500 | < 100 | > 500 | – | –
N#Cc1ccc2c(-c3nc(N[C@H]4CCC[C@@H]4N4CCOCC4)ncc3C(F)(F)F)c[nH]c2c1 [Compound 121] | > 2000 | > 2000 | > 500 | 30 to 100 | > 500 | > 2000 | > 2000 | > 500 | – | –
N[C@H]1CCC[C@@H]1Nc1ncc(C(F)(F)F)c(-c2c[nH]c3c(Cl)c(O)ccc23)n1 [Compound 168, 3-[2-[[(1S,2S)-2-aminocyclopentyl]amino]-5-(trifluoromethyl)pyrimidin-4-yl]-7-chloro-1H-indol-6-ol] | 100 to 500 | < 100 | > 500 | < 30 | > 500 | 100 to 500 | < 100 | > 500 | – | –
CC(=O)N[C@H]1CC[C@@H]1Nc1ncc(C(F)(F)F)c(-c2c[nH]c3cc(C#N)ccc23)n1 [Compound 125, N-[(1S,2S)-2-[[4-(6-cyano-1H-indol-3-yl)-5-(trifluoromethyl)pyrimidin-2-yl]-amino]-cyclobutyl]-acetamide] | > 2000 | > 2000 | > 500 | > 500 | > 500 | > 2000 | 500 to 2000 | > 500 | – | –
N#Cc1ccc2c(-c3nc(N[C@H]4CC[C@@H]4N4CCOCC4)ncc3C(F)(F)F)c[nH]c2c1 [Compound 130] | > 2000 | > 2000 | > 500 | 100 to 500 | > 500 | > 2000 | > 2000 | > 500 | – | –
Cc1noc(C)c1-c1ccc2c(-c3nc(N[C@H]4CCC[C@@H]4NCC(F)F)ncc3C(F)(F)F)c[nH]c2n1 [Compound 147, (1S, 2S)—N2-(2,2-difluoroethyl)-N1-[4-[6-(3,5-dimethylisoxazol-4-yl)-1H-pyrrolo[2,3-b]pyridin-3-yl]-5-(trifluoromethyl)pyrimidin-2-yl] cyclopentane-1,2-diamine] | 500 to 2000 | 100 to 500 | > 500 | < 30 | > 500 | > 2000 | 100 to 500 | > 500 | – | –
Cc1noc(C)c1-c1ccc2c(-c3nc(N[C@H]4CCC[C@@H]4N4CCCC4)ncc3C(F)(F)F)c[nH]c2c1 [Compound 143, 4-[6-(3,5-dimethylisoxazol-4-yl)-1H-indol-3-yl]-N-[(1S,2S)-2-pyrrolidin-1-ylcyclopentyl]-5-(trifluoromethyl)pyrimidin-2-amine] | 100 to 500 | < 100 | > 500 | < 30 | > 500 | 500 to 2000 | < 100 | > 500 | – | –
Cc1nsc(-c2ccc3c(-c4nc(N[C@H]5CCC[C@@H]5N)ncc4C(F)(F)F)c[nH]c3n2)n1 [Compound 158, (1S,2S)—N1-[4-[6-(3-methyl-1,2,4-thiadiazol-5-yl)-1H-pyrrolo [2,3-b]pyridin-3-yl]-5-(trifluoromethyl)pyrimidin-2-yl]cyclopentane-1,2-diamine] | 500 to 2000 | > 2000 | > 500 | < 30 | > 500 | > 2000 | 500 to 2000 | > 500 | – | –
Cc1noc(C)c1-c1ccc2c(-c3nc(N[C@H]4CCC[C@@H]4N4CC(F)(F)C4)ncc3C(F)(F)F)c[nH]c2n1 [Compound 166, N-[(1S,2S)-2-(3,3-difluoroazetidin-1-yl)cyclopentyl]-4-[6-(3,5-dimethylisoxazol-4-yl)-1H-pyrrolo[2,3-b]pyridin-3-yl]-5-(trifluoromethyl)pyrimidin-2-amine] | > 2000 | > 2000 | > 500 | > 500 | > 500 | > 2000 | > 2000 | > 500 | – | –
Cc1noc(C)c1-c1ccc2c(-c3nc(N[C@H]4C[C@H]5CC[N@](CC5)C4)ncc3C(F)(F)F)c[nH]c2n1 [Compound 141, (3S)—N-[4-[6-(3,5-dimethylisoxazol-4-yl)-1H-pyrrolo[2,3-b]pyridin-3-yl]-5-(trifluoromethyl)pyrimidin-2-yl]-1-azabicyclo[3.2.2]nonan-3-amine] | < 100 | < 100 | > 500 | < 30 | > 500 | < 100 | < 100 | > 500 | – | –
Cc1noc(C)c1-c1ccc2c(-c3nc(N[C@H]4CCC[C@@H]4N4CCC4)ncc3C(F)(F)F)c[nH]c2n1 [Compound 146, N-[(1S, 2S)-2-(azetidin-1-yl)cyclopentyl]-4-[6-(3,5-dimethylisoxazol-4-yl)-1H-pyrrolo [2,3-b]pyridin-3-yl]-5-(trifluoromethyl) pyrimidin-2-amine] | – | < 100 | > 500 | < 30 | > 500 | > 2000 | – | > 500 | < 100 | < 100
Cc1noc(C)c1-c1ccc2c(-c3nc(N[C@@H]4C[C@@H]5CC[C@H]4N5)ncc3C(F)(F)F)c[nH]c2c1 [Compound 137, (1S,2S,4R)—N-[4-[6-(3,5-dimethylisoxazol-4-yl)-1H-indol-3-yl]-5-(trifluoromethyl)pyrimidin-2-yl]-7-azabicyclo-[2.2.1]-heptan-3-amine] | < 100 | < 100 | > 500 | < 30 | > 500 | 100 to 500 | < 100 | > 500 | – | –
N#Cc1ccc2c(-c3nc(N[C@H]4Cc5ccccc5[C@@H]4N)ncc3C(F)(F)F)c[nH]c2c1 [Compound 119, 3-[2-[[(1S,2S)-1-aminoindan-2-yl]-amino]-5-(trifluoromethyl)pyrimidin-4-yl]-1H-indole-6-carbonitrile] | 100 to 500 | 100 to 500 | > 500 | < 30 | > 500 | > 2000 | 100 to 500 | > 500 | – | –
CN(C)[C@H]1CC[C@@H]1Nc1ncc(C(F)(F)F)c(-c2c[nH]c3cc(C#N)ccc23)n1 [Compound 126, 3-[2-[[(1S,2S)-2-(dimethylamino)cyclobutyl]-amino]-5-(trifluoromethyl)pyrimidin-4-yl]-1H-indole-6-carbonitrile] | > 2000 | 100 to 500 | > 500 | 30 to 100 | > 500 | > 2000 | 100 to 500 | > 500 | – | –
N#Cc1ccc2c(-c3nc(N[C@H]4CCC[C@@H]4N)ncc3C(F)(F)F)c[nH]c2c1 [Compound 101] | 100 to 500 | 100 to 500 | > 500 | < 30 | > 500 | 100 to 500 | 100 to 500 | > 500 | – | –
Cc1noc(C)c1-c1ccc2c(-c3nc(N[C@H]4CCC[C@@H]4N)ncc3C(F)(F)F)c[nH]c2c1 [Compound 118] | 100 to 500 | < 100 | > 500 | < 30 | > 500 | < 100 | < 100 | > 500 | – | –
